# System: RSV NS-1 gene transcripts
# Assay: RSV infection in cotton rats: RSV NS-1 gene transcripts in lung (qRT-PCR)
# Format: in vivo, Sigmodon hispidus cotton rats
# Conditions: for RSV NS1 gene transcript % inhibition / RSV NS1 gene transcript (/β-actin), Median: intranasal
# Description: RSV Infection in Cotton Rats
# Male Sigmodon hispidus cotton rats between 6 and 8 weeks of age were infected with hRSV/A/Long (ATCC, Manassas, Va.; 10^5 pfu) in a volume of 0.1 mL of sucrose stabilizing media. Test compounds were dissolved in 100% DMSO (at 3.3, 10, 33 and 100 mg/mL), then diluted at 1:10 in isotonic saline to achieve 10% DMSO in all treatments. Formulations were then sonicated to produce suspensions. The resulting suspensions were administered intranasally (50 μL) by pipette 4 hr before infection (on day 0), and then on days 1, 2 and 3 post infection. Four days after RSV challenge, the animals were euthanised and the lungs were removed. The left lobe was used for viral titration via plaque assay and the lingular lobe for RSV/A/Long NS-1 qRT-PCR and cytokine qRT-PCR.
# Total RNA was also extracted from homogenized lung tissue (RNeasy purification kit; Qiagen) and a sample (1 μg) was used to prepare cDNA using QuantiTect Reverse Transcription Kit (Qiagen). For real-time PCR reactions (RSV NS-1 and RANTES genes) the QuantiFast SYBR® Green PCR Kit (Qiagen) was used in a final volume of 25 μL, with final primer concentrations of 0.5 μM. Amplifications were performed on a Bio-Rad iCycler for 1 cycle of 95° C. for 3 min, followed by 40 cycles of 95° C. for 10 sec, 60° C. for 10 sec, and 72° C. for 15 sec. Baseline cycles and cycle threshold (Ct) were calculated by the iQ5 software in the PCR Base Line Subtracted Curve Fit mode. The standard curves were developed using serially diluted cDNA sample most enriched in the transcript of interest (e.g., lungs from day 4 post-primary RSV infection). The Ct values were plotted against log10 cDNA dilution factor. These curves were used to convert the Ct values obtained for different samples to relative expression units which were then normalized to the level of β-actin mRNA (“housekeeping gene”) expressed in the corresponding sample. The mRNA levels were expressed as the geometric mean±SEM for all animals in a group.
compound,measurement,setting,value
"Cc1cnc(N2CC3(CCOCC3)C2)c(C(=O)Nc2ccc(C(=O)N3CCc4cc(C(=O)Nc5c(C)cccc5F)sc4-c4ccccc43)cc2)c1 [Example 5, N-(2-Fluoro-6-methylphenyl)-6-(4-(5-methyl-2-(7-oxa-2-azaspiro[3.5]nonan-2-yl)nicotinamido)benzoyl)-5,6-dihydro-4H-benzo[b]thieno[2,3-d]azepine-2-carboxamide]",Effect on RSV NS-1 gene transcripts (in words),,dose-dependent inhibition
same,RSV NS1 gene transcript % inhibition,Drug Conc 0.33 mg/mL,55%
same,"RSV NS1 gene transcript (/β-actin), Median",Drug Conc 0.33 mg/mL,2.0 /β-actin
same,RSV NS1 gene transcript % inhibition,Drug Conc 1.0 mg/mL,64%
same,"RSV NS1 gene transcript (/β-actin), Median",Drug Conc 1.0 mg/mL,1.6 /β-actin
same,RSV NS1 gene transcript % inhibition,Drug Conc 3.3 mg/mL,77%
same,"RSV NS1 gene transcript (/β-actin), Median",Drug Conc 3.3 mg/mL,1.0 /β-actin
same,RSV NS1 gene transcript % inhibition,Drug Conc 10 mg/mL,77%
same,"RSV NS1 gene transcript (/β-actin), Median",Drug Conc 10 mg/mL,1.0 /β-actin
